Reference: PubChem BioAssay AID1745844 (Carcinogenic Potency Database (CPDB), 2022)
The source made the active and inactive calls. How the calls were made is not given here.

Tested on: rodent lifetime carcinogenesis bioassay, tumor incidence TD50
Experiment: chronic cancer bioassays in animals – CPDB, compiled studies (AID 1745844)

SMILES: CCN(N=O)C(=O)NCC(C)=O
- TD50 (hamster, strain Syrian Golden, females, by gavage, site: forestomach, lesion: carcinoma, dosed 30 weeks, study length 85 weeks): 2.19 mg/kg/day
- TD50 (hamster, strain Syrian Golden, females, by gavage, site: forestomach, lesion: several types, types named in the paper, dosed 30 weeks, study length 85 weeks): 0.983 mg/kg/day
- TD50 (hamster, strain Syrian Golden, females, by gavage, site: spleen, lesion: all vascular tumors, dosed 30 weeks, study length 85 weeks): 0.394 mg/kg/day
- TD50 (hamster, strain Syrian Golden, males, by gavage, site: forestomach, lesion: carcinoma, dosed 30 weeks, study length 85 weeks): 1.92 mg/kg/day
- TD50 (hamster, strain Syrian Golden, males, by gavage, site: forestomach, lesion: several types, types named in the paper, dosed 30 weeks, study length 85 weeks): 0.506 mg/kg/day
- TD50 (hamster, strain Syrian Golden, males, by gavage, site: liver, lesion: cholangioma, dosed 30 weeks, study length 85 weeks): 1.1 mg/kg/day
- TD50 (hamster, strain Syrian Golden, males, by gavage, site: spleen, lesion: hemangiosarcoma, dosed 30 weeks, study length 85 weeks): 0.865 mg/kg/day
- TD50 (rat, strain Fischer 344, females, by gavage, site: lung, lesion: one or several types, types not named, dosed 30 weeks, study length 104 weeks): 0.873 mg/kg/day
- TD50 (rat, strain Fischer 344, females, by gavage, site: mammary tissue, wider than the gland, lesion: carcinoma, dosed 30 weeks, study length 104 weeks): 0.192 mg/kg/day
- TD50 (rat, strain Fischer 344, females, by gavage, site: nervous system, lesion: one or several types, types not named, dosed 30 weeks, study length 104 weeks): 1.66 mg/kg/day
- TD50 (rat, strain Fischer 344, females, by gavage, site: uterus, lesion: one or several types, types not named, dosed 30 weeks, study length 104 weeks): 1.84 mg/kg/day
- TD50 (rat, strain Fischer 344, females, in drinking water, site: colon, lesion: one or several types, types not named, dosed 30 weeks, study length 104 weeks): 1.13 mg/kg/day
- TD50 (rat, strain Fischer 344, females, in drinking water, site: liver, lesion: one or several types, types not named, dosed 30 weeks, study length 104 weeks): 5.53 mg/kg/day
- TD50 (rat, strain Fischer 344, females, in drinking water, site: lung, lesion: one or several types, types not named, dosed 30 weeks, study length 104 weeks): 0.885 mg/kg/day
- TD50 (rat, strain Fischer 344, females, in drinking water, site: mammary tissue, wider than the gland, lesion: carcinoma, dosed 30 weeks, study length 104 weeks): 0.748 mg/kg/day
- TD50 (rat, strain Fischer 344, females, in drinking water, site: nervous system, lesion: one or several types, types not named, dosed 30 weeks, study length 104 weeks): 0.605 mg/kg/day
- TD50 (rat, strain Fischer 344, females, in drinking water, site: skin, lesion: one or several types, types not named, dosed 30 weeks, study length 104 weeks): 1.79 mg/kg/day
- TD50 (rat, strain Fischer 344, females, in drinking water, site: thyroid gland, lesion: follicular-cell tumor, dosed 30 weeks, study length 104 weeks): 0.804 mg/kg/day
- TD50 (rat, strain Fischer 344, females, in drinking water, site: uterus, lesion: one or several types, types not named, dosed 30 weeks, study length 104 weeks): 1.49 mg/kg/day
- TD50 (rat, strain Fischer 344, males, by gavage, site: Zymbal's gland, lesion: one or several types, types not named, dosed 30 weeks, study length 104 weeks): 0.499 mg/kg/day
- TD50 (rat, strain Fischer 344, males, by gavage, site: colon, lesion: one or several types, types not named, dosed 30 weeks, study length 104 weeks): 0.562 mg/kg/day
- TD50 (rat, strain Fischer 344, males, by gavage, site: forestomach, lesion: one or several types, types not named, dosed 30 weeks, study length 104 weeks): 0.861 mg/kg/day
- TD50 (rat, strain Fischer 344, males, by gavage, site: liver, lesion: one or several types, types not named, dosed 30 weeks, study length 104 weeks): 3.39 mg/kg/day
- carcinogen call (rat, strain Fischer 344, males, by gavage, site: lung, lesion: one or several types, types not named, dosed 30 weeks, study length 104 weeks): positive
- TD50 (rat, strain Fischer 344, males, by gavage, site: nervous system, lesion: one or several types, types not named, dosed 30 weeks, study length 104 weeks): 1.37 mg/kg/day
- TD50 (rat, strain Fischer 344, males, by gavage, site: thyroid gland, lesion: follicular-cell tumor, dosed 30 weeks, study length 104 weeks): 0.767 mg/kg/day
- TD50 (rat, strain Fischer 344, males, by gavage, site: tunica vaginalis, lesion: mesothelioma, dosed 30 weeks, study length 104 weeks): 0.225 mg/kg/day
- TD50 (rat, strain Fischer 344, males, in drinking water, site: Zymbal's gland, lesion: one or several types, types not named, dosed 30 weeks, study length 104 weeks): 1.13 mg/kg/day
- TD50 (rat, strain Fischer 344, males, in drinking water, site: colon, lesion: one or several types, types not named, dosed 30 weeks, study length 104 weeks): 0.524 mg/kg/day
- TD50 (rat, strain Fischer 344, males, in drinking water, site: lung, lesion: one or several types, types not named, dosed 30 weeks, study length 104 weeks): 0.231 mg/kg/day
- TD50 (rat, strain Fischer 344, males, in drinking water, site: nervous system, lesion: one or several types, types not named, dosed 30 weeks, study length 104 weeks): 0.127 mg/kg/day
- TD50 (rat, strain Fischer 344, males, in drinking water, site: skin, lesion: one or several types, types not named, dosed 30 weeks, study length 104 weeks): 0.982 mg/kg/day
- TD50 (rat, strain Fischer 344, males, in drinking water, site: tunica vaginalis, lesion: mesothelioma, dosed 30 weeks, study length 104 weeks): 0.264 mg/kg/day

SMILES: CC(=O)[O-].CC(=O)[O-].CCC(=O)c1ccc(F)c([C@@H]2C[C@@H]2NC(=O)Nc2ccc(C#N)cn2)c1O.[Zn+2]
- TD50 (hamster, strain Syrian Golden, females, in feed, site: any site (literature study), lesion: several types, types named in the paper, dosed 78 weeks, study length 78 weeks): 177000 mg/kg/day (inactive)
- carcinogen call (hamster, strain Syrian Golden, females, in feed, site: liver, lesion: hemangioma, dosed 78 weeks, study length 78 weeks): negative (inactive)
- TD50 (hamster, strain Syrian Golden, males, in feed, site: any site (literature study), lesion: several types, types named in the paper, dosed 106 weeks, study length 111 weeks): 54100 mg/kg/day (inactive)
- carcinogen call (hamster, strain Syrian Golden, males, in feed, site: liver, lesion: hemangioma, dosed 106 weeks, study length 111 weeks): negative (inactive)
- TD50 (rat, strain MRC, females, in feed, site: peripheral nervous system, lesion: one or several types, types not named, dosed 143 weeks, study length 146 weeks): 35400 mg/kg/day (inactive)
- carcinogen call (rat, strain MRC, females, in feed, site: skin, lesion: one or several types, types not named, dosed 143 weeks, study length 146 weeks): negative (inactive)
- carcinogen call (rat, strain MRC, males, in feed, site: any site (literature study), lesion: several types, types named in the paper, dosed 139 weeks, study length 141 weeks): negative (inactive)

SMILES: c1ccc2sc(SNC3CCCCC3)nc2c1
- carcinogen call (mouse, strain B6AKF1, females, oral dosing, site: any site (literature study), lesion: several types, types named in the paper, dosed 76 weeks, study length 76 weeks): negative (inactive)
- carcinogen call (mouse, strain B6AKF1, females, oral dosing, site: liver, lesion: hepatoma, dosed 76 weeks, study length 76 weeks): negative (inactive)
- carcinogen call (mouse, strain B6AKF1, females, oral dosing, site: lung, lesion: adenoma, dosed 76 weeks, study length 76 weeks): negative (inactive)
- carcinogen call (mouse, strain B6AKF1, males, oral dosing, site: any site (literature study), lesion: several types, types named in the paper, dosed 76 weeks, study length 76 weeks): negative (inactive)
- carcinogen call (mouse, strain B6AKF1, males, oral dosing, site: liver, lesion: hepatoma, dosed 76 weeks, study length 76 weeks): negative (inactive)
- carcinogen call (mouse, strain B6AKF1, males, oral dosing, site: lung, lesion: adenoma, dosed 76 weeks, study length 76 weeks): negative (inactive)
- TD50 (mouse, strain B6C3F1, females, oral dosing, site: any site (literature study), lesion: several types, types named in the paper, dosed 76 weeks, study length 76 weeks): 243 mg/kg/day (inactive)
- carcinogen call (mouse, strain B6C3F1, females, oral dosing, site: liver, lesion: hepatoma, dosed 76 weeks, study length 76 weeks): negative (inactive)
- carcinogen call (mouse, strain B6C3F1, females, oral dosing, site: lung, lesion: several types, types named in the paper, dosed 76 weeks, study length 76 weeks): negative (inactive)
- TD50 (mouse, strain B6C3F1, males, oral dosing, site: any site (literature study), lesion: several types, types named in the paper, dosed 76 weeks, study length 76 weeks): 50.8 mg/kg/day (inactive)
- TD50 (mouse, strain B6C3F1, males, oral dosing, site: liver, lesion: hepatoma, dosed 76 weeks, study length 76 weeks): 92.7 mg/kg/day (inactive)
- TD50 (mouse, strain B6C3F1, males, oral dosing, site: lung, lesion: adenoma, dosed 76 weeks, study length 76 weeks): 532 mg/kg/day (inactive)
